Measurements from patent publication US20180207165A1, “METHODS AND COMPOSITIONS FOR STIMULATING BENEFICIAL BACTERIA IN THE GASTROINTESTINAL TRACT” (Rijksuniversiteit Groningen, priority 2012, published 2018).

Experiments:
[1] = test system: Faecalibacterium prausnitzii; assay: Riboflavin intervention trial: FISH count of F. prausnitzii in fecal samples; format: in vivo, human
Experimental: (§1) A human intervention study was performed to investigate the effect of riboflavin on the numbers of Faecalibacterium prausnitzii in the gut. A group of 8 volunteers (body weight 60 to 90 kg) were asked to take 1 oral dose of 100 mg riboflavin supplement per day for 14 days.
(§2) Two samples were taken in a period of two weeks before the intake, as baseline samples, two samples (one per week) were taken during the intake and one sample a week after intake. The number of F. prausnitzii and that of other bacterial groups were determined by FISH with a specific probes as describe before (Harmsen et al. Appl Environ Microbiol. 2002 June; 68(6):2982-90). The numbers of faecalibacteria of the samples taken before and during the intake were averaged and all samples were plotted in FIG. 1.

[2] = test system: Enterobacteriaceae, E. coli-like bacteria; assay: Riboflavin intervention trial: count of E. coli-like bacteria in fecal samples; format: in vivo, human
Experimental: as §1, §2

[3] = Butyrate production in human volunteers on oral riboflavin; format: in vivo; conditions: orally administered riboflavin
Enterococci = assay: Riboflavin intervention trial: count of Enterococci in fecal samples; format: in vivo, human; conditions: during the intervention, 100 mg/day riboflavin
Experimental: as §1, §2

F. prausnitzii = assay: Stability of F. prausnitzii synbiotic formulations after exposure to ambient air (CFU count); design: species or system Faecalibacterium prausnitzii; conditions: ingredient in lyophilized formulation
Experimental: To produce a formulation with living faecalibacteria that are stable for at least 24 h under aerobic conditions, series of experiments were performed with different combinations of ingredients. Faecalibacteria were grown overnight in broth culture medium, centrifuged and the pellet was washed with anaerobic phosphate buffered saline (PBS) and centrifuged again. The mixtures were frozen at −20° C. and subsequently lyophilized.
After lyophilizing, the formulations were exposed to air for the indicated time periods. The preparations were re-suspended in phosphate buffer and a 10 fold-dilution series was plated on anaerobic growth medium agar. The Colony-forming units were counted and compared with a non exposed t=0 time point.
The lyophilized granules obtained according to step 2 were stored in air tight containers under ambient aerobic conditions. For stability and viability studies granules were exposed to the ambient air at defined period up to 24 h. After aerobic exposures the granules were processed anaerobically under anaerobic tent. The granules were diluted and rehydrated in oxygen free phosphate buffered saline (pH 7.2) supplemented with 0.05% cysteine and ten-fold dilution series were plated on YCFAG agar medium. Colony forming units were determined by counting the colonies formed on the agar plates after 24 h of incubations at 37° C.

Clostridium group XIVa = assay: Riboflavin intervention trial: FISH count of Clostridium group XIVa in fecal samples; format: in vivo, human; conditions: 8 volunteers, 100 mg/day oral riboflavin for two weeks
Experimental: as §1, §2

With `Cc1cc2nc3c(=O)[nH]c(=O)nc-3n(C[C@H](O)[C@H](O)[C@H](O)CO)c2cc1C` [riboflavin] the “percentage F. prausnitzii of the total bacteria” value ([1]; 8 volunteers, 100 mg/day oral riboflavin for 14 days, feces) was “increased in 7 out of 8 samples”, the “number of faecalibacteria in fecal samples” value ([1]; 8 volunteers, 1 oral dose of 100 mg riboflavin per day for 14 days, pre, during, post intake, FISH) was “increased during intake and decreased again when the intake ceases” and the “ratio faecalibacteria/Clostridium group XIVa” value ([1]; calculated from before and from during intake, 100 mg/day riboflavin) was “increased in all cases”. The “number of E. coli(-like bacteria) in fecal samples” value ([2]; during riboflavin intake, 100 mg/day for two weeks, all individuals tested) was “decreased or remained the same”, the “ratio of faecalibacteria to E. coli-like bacteria” value ([2]; upon administration of riboflavin, 100 mg/day) was “the ratio shifted towards faecalibacteria” and the butyrate production [3] was “enhanced”. The “number of Enterococci in fecal samples” value (Enterococci) was “did not increase during the intervention”, the “protective effect on faecalibacteria against ambient air exposure” value (from here on “protective effect on faecalibacteria”) (F. prausnitzii) was “provide the protective effect” and the “number of Clostridium group XIVa bacteria in fecal samples” value (Clostridium group XIVa) was “did not increase”.

For `O=c1c(O)c(-c2ccc(O)c(O)c2)oc2cc(O)cc(O)c12` [quercitin], the “protective effect on faecalibacteria” value (F. prausnitzii) was “not observed”.

In the case of `O=C1O[C@H]([C@@H](O)CO)C(O)=C1O` [ascorbic acid], the “protective effect on faecalibacteria” value (F. prausnitzii) is reported as “not observed”.

For `N[C@@H](CS)C(=O)O` [cysteine], the “protective effect on faecalibacteria” value (F. prausnitzii) was “provide the protective effect”.
